Experimental data as given in PMC10498667 (Chemical Science, 2023).

Tests used:
Aβ40 = target: T1, Aβ40 (Homo sapiens, UniProt P05067); test: Aβ40 aggregation inhibition experiments (gel/western blot, TEM); format: biochemical; details: flavonoid 50 μM, 24 h
T1 construct: Ab40 ([…]-; purchased Peptide Institute, Inc. (Osaka, Japan)
Description: To verify whether a series of nine flavonoids can modulate the aggregation of Aβ with and without metal ions, the molecular weight (MW) distribution and morphology of the resultant Aβ species were determined by gel electrophoresis with western blotting (gel/western blot) using an anti-Aβ antibody (6E10) and transmission electron microscopy (TEM), respectively. Two types of experiments were carried out employing two major Aβ isoforms, i.e., Aβ42 and Aβ40:[25] (i) inhibition studies to identify the effect of 1–5, 1a, 1b, 4a, and 4b on the formation of Aβ aggregates; (ii) disaggregation studies to evaluate if the flavonoids with reactivities towards Aβ aggregation in inhibition studies can disassemble preformed Aβ aggregates or modulate their further aggregation, as illustrated in Fig. 4 and S5–S9. ^† Moreover, the solutions containing the flavonoids and Cu(II) were probed by electronic absorption (Abs) spectroscopy to monitor their metal binding. […] As expected, no Abs change of 1a and 4a composed of methoxy groups on the A ring was detected by addition of Cu(II). […]
(§1) Ab Aggregation Experiments. Ab was dissolved in ammonium hydroxide [1% w/w NH4OH (aq)] and the resulting solution was aliquoted, lyophilized overnight, and stored at –80 °C. A stock solution of Ab was then prepared by dissolving the lyophilized peptide with NH4OH (1% w/w, aq; 10 µL) and diluting with ddH2O. All Ab samples were prepared following previously reported procedures.21,22 The concentration of the peptide solution was determined by measuring its […]
(§2) solution (20 mM HEPES, pH 7.4, 150 mM NaCl) was used for preparing Ab samples. For the inhibition studies, flavonoids (final concentration, 50 µM; 1% v/v DMSO) were added to the samples of Ab (25 µM) in the absence and presence of CuCl2 or ZnCl2 (25 µM) followed by incubation for 24 h at 37 °C with constant agitation. For the disaggregation studies, Ab (25 µM) was incubated with and without CuCl2 or ZnCl2 (25 µM) for 24 h at 37 °C with constant agitation to generate preformed Ab aggregates. The resultant Ab aggregates were then treated with flavonoids (50 µM) and incubated for additional 24 h with constant agitation. For the additional disaggregation experiments, preformed Ab42 aggregates (25 µM) or Ab42 seeds (10% v/v) with or without metal ions (25 µM for CuCl2 and ZnCl2) were incubated with flavonoids (50 µM) for 24 h with constant agitation. The resultant Ab aggregates were then treated with freshly prepared Ab42 […]
(§3) (25 µM) and incubated for additional 24 h with constant agitation.
(§4) Gel/Western Blot. The resultant Ab species from the aggregation experiments were analyzed by gel/Western blot using an anti-Ab antibody (6E10, Covance, Princeton, NJ, USA).21,22 Each sample (10 µL) was separated on a 10–20% tricine gel (Invitrogen). Following separation, the proteins were transferred onto nitrocellulose membranes and blocked with bovine serum albumin (BSA, 3% w/v; Sigma-Aldrich) in Tris-buffered saline (TBS) containing 0.1% v/v Tween-20 (Sigma-Aldrich) (TBS-T) for 4 h at room temperature or overnight at 4 °C. The membranes were incubated with 6E10 (1:2,000) in the solution of BSA (2% w/v in TBS-T) for 4 h at room temperature. […] A homemade ECL kit21–23 was used to visualize gel/Western blots on a ChemiDoc MP Imaging System (Bio-Rad).
TEM. Samples for TEM were prepared following previously reported methods.22,24 Glow-discharged grids (Formvar/Carbon 300-mesh; Electron Microscopy Sciences, Hatfield, PA, USA) were treated with Ab samples (25 µM; 7.5 µL) for 2 min at room temperature. Excess sample was removed using filter paper followed by washing with ddH2O (3x). Each grid incubated with uranyl […]

Aβ42 = target: T2, Aβ42 (Homo sapiens, UniProt P05067); test: Additional disaggregation experiments (preformed aggregates or seeds with Aβ monomers); format: biochemical; details: metal-free Aβ42 and metal–Aβ42; flavonoid 50 μM
T2 construct: purchased Peptide Institute, Inc. (Osaka, Japan)
T2 sequence (P05067 672-713 limits assumed): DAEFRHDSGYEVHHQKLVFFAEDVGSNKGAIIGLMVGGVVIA
Description: To probe the secondary nucleation of disassembled Aβ aggregates induced by the flavonoids on Aβ monomers, additional disaggregation experiments were conducted by incubating preformed aggregates of metal-free and metal-treated Aβ or their seeds with Aβ monomers. […] These indications describe the significance of three hydroxyl groups on the A ring in the flavonoid structure to impact the aggregation of metal-free Aβ and metal–Aβ. […]
as §1
solution (20 mM HEPES, pH 7.4, 150 mM NaCl) was used for preparing Ab samples. […]
as §2, with “For” for “solution (20 mM HEPES, pH 7.4, 150 mM NaCl) was used for preparing Ab samples. For the inhibition studies, flavonoids (final concentration, 50 µM; 1% v/v DMSO) were added to the samples of Ab (25 µM) in the absence and presence of CuCl2 or ZnCl2 (25 µM) followed by incubation for 24 h at 37 °C with constant agitation. For”
as §3, §4
TEM. […]
Cu(II)-binding Studies. The interaction of flavonoids with Cu(II) was detected by Abs spectroscopy in 20 mM HEPES, pH 7.4, 150 mM NaCl. […] The mixture solution was allowed to equilibrate for 5 min after the addition of CuCl2 at room temperature before the spectra were recorded. […]

T1 sequence (P05067 672-711 limits assumed): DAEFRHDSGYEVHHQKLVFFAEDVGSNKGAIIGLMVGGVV

Compound | morphology of resultant aggregates (TEM) (Aβ40; Cu(II)–Aβ40) | MW distribution of resultant species (gel/western blot) (Aβ40; metal-free Aβ40) | morphology of resultant aggregates (TEM) (Aβ40; metal-free Aβ40) | MW distribution after incubating treated preformed aggregates or seeds with Aβ monomers (secondary nucleation) (Aβ42) | MW distribution of resultant species (gel/western blot) (Aβ40; Cu(II)–Aβ40 and Zn(II)–Aβ40) | morphology of resultant aggregates (TEM) (Aβ40; Zn(II)–Aβ40)
O=c1cc(-c2ccccc2)oc2c(Cl)c(O)c(O)c(O)c12 [compound 5, 8-chlorobaicalein] | chopped filamentous Cu(II)–Aβ40 aggregates | increased the band intensity | shorter and thinner fibrils | notable variations in the MW distribution |  | 
O=c1c(-c2ccccc2)coc2cc(O)c(O)c(O)c12 [4b, 5,6,7-trihydroxyisoflavone] | both amorphous and fibrillary aggregates | reduced | shorter and thinner fibrils | notable variations in the MW distribution | diverse MW distribution | a bunch of fibrillary species with chopped filamentous aggregates
O=c1cc(-c2ccccc2)oc2ccc(O)c(O)c12 [compound 3, 5,6-dihydroxyflavone] | both amorphous and fibrillary aggregates |  |  | reactivity specifically towards metal–Aβ42 species |  | 
O=c1cc(-c2ccccc2)oc2cc(O)c(O)c(O)c12 [compound 4, baicalein] | both amorphous and fibrillary aggregates | reduced | shorter and thinner fibrils | notable variations in the MW distribution |  | 
